{"source": "patent US8574578B2", "about": "“Antibodies against PDGFRα to inhibit tumor growth” (ImClone LLC, priority 2006, dated 2013)", "key": {"LuCaP 35V xenograft [1]": {"tested_on": "LuCaP 35V xenograft", "experiment": "Serum PSA in mice carrying LuCaP 35V xenografts (IMx Total PSA Assay)", "format": "in vivo, castrated SCID mice", "experimental": "(§1) All treatments were administered intraperitoneally (ip). Docetaxel was administered once a week. A12 was administered three times a week. […] Animals were weighed twice a week. Blood samples were collected from orbital sinus weekly."}, "LuCaP 35V xenograft [2]": {"tested_on": "LuCaP 35V xenograft", "experiment": "TUNEL / propidium staining flow cytometry of tumor cells at time of sacrifice", "format": "in vivo, castrated SCID mice", "settings": "percentage of tumors; for Apoptosis (%): four weeks after treatment termination; for G1 arrest (%) / G2 arrest (%) / Normal cycle (%): time of sacrifice", "experimental": "After euthanization, tumors were collected and halved. A portion of the tumors were fixed in 10% neutral buffer formalin (NFB) and embedded in paraffin. Five micron sections were prepared for immunohistochemistry (IHC) staining. The remaining portion of the tumors was separated into single cells mechanically by mincing and filtering through 70 μm nylon sieves.\nThe combined in vivo effect of docetaxel and A12 treatment on cell cycle and cell survival at the experimental end point was measured by terminal deoxynucleotidyl transferase-mediated nick end labeling (TUNEL) assay and propidium (PI) staining using the Apop-Direct kit (BD BioScience) as previously described. Briefly, 1×10^6 cells from the single-cell suspension were fixed with 10% neutral buffer formalin (NBF) followed by 70% ethanol alcohol at −20° C. for 30 min. After several washes, cells were permeabilized with 0.1% Triton X-100 and incubated with FITC-conjugated dUTP and terminal deoxynucleotidyl transferase enzyme (TdT) at 37° C. for 1 h, followed by an incubation with PI/RNase buffer (100 μg/ml of PI, 50 μg/ml RNase) at room temperature for 60 min. Samples were analyzed by flow cytometry using a BD FACscan. Data were analyzed with CellQuest^PRO software."}, "[3]": {"experiment": "Overall cytotoxicity of coadministration of docetaxel and IMC-A12", "format": "in vivo, SCID mice", "settings": "compared to control tumor-bearing animals", "experimental": "as §1\nCytotoxicity of coadministration of docetaxel and IMC-A12 was examined."}, "[4]": {"tested_on": "LuCaP 23.1 prostate cancer cells", "experiment": "IMC-A12 + docetaxel, LuCaP 23.1 tibial bone metastases, six weeks (present-tense example)", "format": "in vivo, castrated SCID mice", "settings": "weekly PSA, during and after six weeks of treatment", "experimental": "SCID mice are castrated 2 weeks prior to tibial tumor injections. Bone metastases are generated by direct injection of LuCaP 23.1 prostate cancer cells into the tibia of the mice, giving rise to osteoblastic lesions. The xenografts express IGF-IR. Serum PSA levels are measured biweekly to evaluate tumor growth. When serum PSA levels reach 5-10 ng/ml indicating established tumor, animals are randomized into four groups.\nIn two groups, 40 mg/kg of IMC-A12 are injected i.p. three times a week for six weeks with one group receiving IMC-A12+docetaxel 20 mg/kg i.p once a week for 6 weeks and a second group IMC-A12+docetaxel 10 mg i.p. three times a week for 6 weeks. Control groups receive 10 or 20 mg docetaxel i.p. without IMC-A12.\nAnimals are monitored with weekly PSA measurements. After termination of treatment, animals continue to be monitored with weekly PSA measurements until tumors in the docetaxel only groups show tumor regrowth. […] Reductions in PSA levels are observed to continue, even after termination of treatment at six weeks.\nAs indicated above, BMD measurements are made at the time of engraftment and at sacrifice, and radiographs are taken just prior to sacrifice."}, "[5]": {"tested_on": "LuCaP 23.1 human prostate tumor", "experiment": "Docetaxel with or without A12, LuCaP 23.1 intratibial xenografts, four weeks", "format": "in vivo, SCID mice", "experimental": "LuCaP 23.1 human prostate tumor bits (20 to 30 mm^3) were mechanically digested. 2-5×10^5 viable LuCaP 23.1 cells were injected into the tibiae of 6-8 wk old SCID mice. 21 mice randomized into three groups were used for the study. After tumor injection, serum PSA was monitored weekly. Treatment started when serum PSA level reached 5-10 ng/ml, an indication of tumor growth. Group 1 received control vehicle saline buffer. Group 2 received 20 mg/kg of docetaxel i.p once a week for 4 weeks. Group 3 received 20 mg/kg of docetaxel once a week and 40 mg/kg of A12 i.p. three times a week for 4 weeks. To determine whether the response to treatment was osteoblastic or osteolytic, BMD was measured by Dexa-scan and x-rays of the animals at the end point of all treatments."}, "LuCaP 35V xenograft [6]": {"tested_on": "LuCaP 35V xenograft", "experiment": "LuCaP 35V subcutaneous xenograft tumor growth", "procedure": "Tumor bits (20 to 30 mm^3) of androgen-independent (AI) LuCaP 35V were implanted subcutaneously (s.c.) into 32 six-week-old castrated SCID mice respectively as previously described (4). […] Group 1 animals received docetaxel treatment at a dose of 20 mg/kg. Group 2 animals received docetaxel treatment at a dose of 10 mg/kg. Group 3 animals received combined treatment of 10 mg/kg docetaxel and 40 mg/kg A12. Group 4 animals received combined treatment of 20 mg/kg docetaxel and 40 mg/kg A12. All treatments were administered intraperitoneally (ip). Docetaxel was administered once a week. A12 was administered three times a week. All animals were treated for four weeks and monitored for additional four weeks before euthanization. Tumors were measured twice weekly and tumor volume was estimated by the formula: volume=L×W^2/2. Following our University of Washington IACUC approved animal protocol, some animals were euthanized at an earlier time when tumor reached a volume of 1000 mm^3 or when animal weight loss exceeded 20% of initial body weight. Animals were weighed twice a week."}, "[7]": {"tested_on": "Akt phosphorylation in PC3-ML cells", "experiment": "Akt phosphorylation in PC3-ML cells (Western blot)", "format": "cell-based, human", "settings": "20 μM AG-1296", "experimental": "Bone marrow samples from normal male donors (ages 18-45) were supplied by Cambrex (Poietics™ Donor Program). Samples were centrifuged at 1,500 rpm in order to separate the soluble and cellular phases. The supernatant was filtered using 0.8 μm and 0.22 μm filters in succession. 50 μl of bone marrow aspirate was administered to cells in 1 ml of medium (1:20 final dilution).\nFor experiments performed in the presence of serum, cells were cultured in DMEM supplemented with 10% FBS and 50 μg/ml gentamycin for 24 hours prior to exposure to bone marrow. For experiments in the absence of serum (starved cells), cells were washed twice with PBS, the growth medium was replaced with serum-free DMEM, and the cells were incubated for 4 hours prior to exposure to bone marrow preparations. When used, AG-1296, a specific inhibitor of PDGF receptors (Rice et al., 1999, Amer. J. Path. 155, 213-21) was added to cultures 30 min. prior to exposure to bone marrowaspirate. IMC-3G3 antibodies were administered as described at pre-treatment times as stated below."}, "[8]": {"experiment": "Post-treatment serum levels of A12", "format": "in vivo, SCID mice", "experimental": "Serum levels of A12 were measured in animals that had received docetaxel combined with A12."}, "murine IGF-IR": {"target": "murine IGF-IR (Mus musculus, UniProt Q60751)", "sequence (Q60751 31-1373)": "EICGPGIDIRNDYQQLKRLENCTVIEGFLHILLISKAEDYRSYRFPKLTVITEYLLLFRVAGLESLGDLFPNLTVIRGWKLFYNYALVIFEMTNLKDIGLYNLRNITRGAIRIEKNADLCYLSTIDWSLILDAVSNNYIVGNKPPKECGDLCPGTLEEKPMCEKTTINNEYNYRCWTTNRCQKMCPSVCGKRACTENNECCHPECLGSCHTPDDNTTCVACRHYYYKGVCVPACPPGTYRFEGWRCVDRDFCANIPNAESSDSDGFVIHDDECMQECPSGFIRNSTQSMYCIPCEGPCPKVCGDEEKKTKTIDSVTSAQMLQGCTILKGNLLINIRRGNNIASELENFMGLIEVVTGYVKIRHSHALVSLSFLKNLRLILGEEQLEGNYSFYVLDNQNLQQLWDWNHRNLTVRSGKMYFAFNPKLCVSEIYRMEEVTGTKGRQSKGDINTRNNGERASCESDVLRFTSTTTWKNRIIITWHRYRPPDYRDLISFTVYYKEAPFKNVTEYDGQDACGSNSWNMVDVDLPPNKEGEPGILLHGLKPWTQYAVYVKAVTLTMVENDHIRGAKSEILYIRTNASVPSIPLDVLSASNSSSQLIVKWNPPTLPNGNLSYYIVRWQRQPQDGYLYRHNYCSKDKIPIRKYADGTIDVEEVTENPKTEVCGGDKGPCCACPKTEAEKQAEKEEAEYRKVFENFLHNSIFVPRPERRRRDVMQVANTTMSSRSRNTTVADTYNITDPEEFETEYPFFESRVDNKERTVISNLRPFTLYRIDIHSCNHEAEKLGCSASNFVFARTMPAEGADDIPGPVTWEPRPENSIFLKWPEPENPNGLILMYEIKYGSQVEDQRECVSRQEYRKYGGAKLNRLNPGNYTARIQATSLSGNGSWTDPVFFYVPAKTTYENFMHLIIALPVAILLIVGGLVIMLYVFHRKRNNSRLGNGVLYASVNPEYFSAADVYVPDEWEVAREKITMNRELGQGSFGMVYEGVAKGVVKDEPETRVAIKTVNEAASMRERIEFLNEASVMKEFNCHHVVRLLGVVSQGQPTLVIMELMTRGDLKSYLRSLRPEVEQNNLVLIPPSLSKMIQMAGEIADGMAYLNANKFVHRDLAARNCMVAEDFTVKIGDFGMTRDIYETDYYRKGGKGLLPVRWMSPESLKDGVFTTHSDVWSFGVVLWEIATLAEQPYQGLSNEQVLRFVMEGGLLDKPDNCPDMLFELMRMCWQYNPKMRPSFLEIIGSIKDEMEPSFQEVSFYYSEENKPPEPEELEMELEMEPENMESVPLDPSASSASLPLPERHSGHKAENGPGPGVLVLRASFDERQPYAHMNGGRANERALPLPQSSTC", "experiment": "Cross-reactivity of A12 with murine IGF-IR", "format": "binding"}, "LuCaP 23.1 xenograft": {"tested_on": "LuCaP 23.1 xenograft", "experiment": "IMC-A12 treatment of LuCaP 23.1 intratibial xenografts (PSA, BMD, radiographs)", "format": "in vivo, castrated SCID mice", "experimental": "Anti-IGF-IR antibody therapy for bone metastases. The effectiveness of treatment with anti-IGF-IR antibodies on metastatic growth of prostate cancer cells in bone was evaluated using prostate cancer cells injected directly into the tibia of SCID mice. By this method, metastatic tumors are established directly without reliance on chemotaxis dependent invasion from the circulation. A variety of tumor lines are available for establishing bone metastases. These include PC-3, LuCaP35, and LnCaP cells which produce osteolytic lesions and LuCaP 23.1 cells which produce osterblastic lesions.\nTo evaluate the effectiveness of treatment with IMC-A12, LuCaP 23.1 xenograft tumors were engrafted in SCID mice, and serum PSA levels were measured biweekly to evaluate tumor growth. All animals were castrated two weeks prior to tibial tumor cell engraftment. Administration of IMC-A12 to test mice was begun when serum PSA levels reached 5-10 ng/ml (indicating established tumors). 40 mg/kg IMC-A12 was injected i.p. three times a week for six weeks.\nBone mineral density (BMD) of the tumored tibiae and the contralateral tibiae without tumor was measured by Dual X-ray absorptiometry (PIXImus Lunar densitometer) performed on a 2.5 mm×2.5 mm area at the tumor cell injection site, or the corresponding site of the contralateral tibia at the time of engraftment. Biweekly assessment of lesions was made by serum PSA measurements. All animals were sacrificed when the bone lesions in the control group had recurred after castration based on serum PSA levels (LuCaP 35 >60 ng/ml, ng/ml, LuCaP 23.1 >500 ng/ml), radiographical appearance of the bone lesions or when animals became compromised. One hour prior to sacrifice animals were injected with BrdU to monitor tumor cell proliferation. Radiographs were taken prior to sacrifice (FaxitronX-ray MX-20), and BMD of both tibiae were measured at the time of sacrifice."}, "[9]": {"settings": "40 mg/kg IMC-A12 i.p. three times a week for six weeks, at sacrifice"}}, "data": [{"compound": "CC(=O)O[C@@]12CO[C@@H]1C[C@H](O)[C@@]1(C)C(=O)[C@H](O)C3=C(C)[C@@H](OC(=O)[C@H](O)[C@@H](NC(=O)OC(C)(C)C)c4ccccc4)C[C@@](O)([C@@H](OC(=O)c4ccccc4)[C@H]21)C3(C)C", "note": "[docetaxel]", "values": [{"measurement": "serum PSA level during the four-week treatment", "setting": "LuCaP 35V xenograft [1]; A12 + docetaxel, or 20 mg/kg docetaxel alone", "result": "no significant change"}, {"measurement": "serum PSA level after treatment termination", "setting": "LuCaP 35V xenograft [1]; mouse, in vivo", "result": "increased"}, {"measurement": "Apoptosis (%)", "setting": "LuCaP 35V xenograft [2]; docetaxel 10 mg/kg groups", "result": "No apoptosis"}, {"measurement": "Apoptosis (%)", "setting": "LuCaP 35V xenograft [2]; docetaxel 10 mg/kg groups, listed as Doc (10)", "result": 0, "unit": "%"}, {"measurement": "G1 arrest (%)", "setting": "LuCaP 35V xenograft [2]; docetaxel 10 mg/kg groups", "result": 0, "unit": "%"}, {"measurement": "G2 arrest (%)", "setting": "LuCaP 35V xenograft [2]; docetaxel 10 mg/kg groups", "result": 12, "unit": "%"}, {"measurement": "Normal cycle (%)", "setting": "LuCaP 35V xenograft [2]; docetaxel 10 mg/kg groups", "result": 88, "unit": "%"}, {"measurement": "Apoptosis (%)", "setting": "LuCaP 35V xenograft [2]; docetaxel 20 mg/kg groups", "result": "No apoptosis"}, {"measurement": "Apoptosis (%)", "setting": "LuCaP 35V xenograft [2]; docetaxel 20 mg/kg groups, listed as Doc (20)", "result": 0, "unit": "%"}, {"measurement": "G1 arrest (%)", "setting": "LuCaP 35V xenograft [2]; docetaxel 20 mg/kg groups", "result": 0, "unit": "%"}, {"measurement": "G2 arrest (%)", "setting": "LuCaP 35V xenograft [2]; docetaxel 20 mg/kg groups", "result": 0, "unit": "%"}, {"measurement": "Normal cycle (%)", "setting": "LuCaP 35V xenograft [2]; docetaxel 20 mg/kg groups", "result": 100, "unit": "%"}, {"measurement": "daily activity or behavior", "setting": "[3]", "result": "no abnormal daily activity or behavior changes"}, {"measurement": "PSA levels", "setting": "[4]", "result": "rise"}, {"measurement": "LuCaP 23.1 tumor growth as reflected by serum PSA levels during treatment", "setting": "[5]; docetaxel 20 mg/kg once a week, A12 40 mg/kg three times a week, 4 weeks", "result": "significantly inhibited"}, {"measurement": "serum PSA after treatment cessation", "setting": "[5]; docetaxel 20 mg/kg, A12 40 mg/kg", "result": "began to increase"}, {"measurement": "average bone density (mean±SEM)", "setting": "[5]; week five, docetaxel 20 mg/kg, A12 40 mg/kg", "result": "0.09±0.02"}, {"measurement": "rate of tumor volume increase in the four weeks following treatment termination", "setting": "LuCaP 35V xenograft [6]; docetaxel 20 mg/kg alone", "result": "27.0±16.1", "unit": "mm^3/week"}, {"measurement": "tumor volume during the four-week treatment period", "setting": "LuCaP 35V xenograft [6]; docetaxel 20 mg/kg with or without combined A12", "result": "tumor volume did not increase"}, {"measurement": "tumor growth rate during treatment", "setting": "LuCaP 35V xenograft [6]; four-week ip treatment, A12 alone 40 μg/kg as printed, docetaxel 10 mg/kg, docetaxel 10 mg/kg + A12", "result": "29.6±6.1", "unit": "mm^3/week"}]}, {"compound": "COc1cc2ncc(-c3ccccc3)nc2cc1OC", "note": "[AG-1296, reference compound]", "values": [{"measurement": "inhibition of bone marrow aspirate induced Akt activation", "setting": "[7]", "result": "more than 40%"}, {"measurement": "inhibition of PDGF-BB induced Akt activation", "setting": "[7]; 30 ng/ml PDGF-BB", "result": "completely inhibits"}]}, {"compound": "IMC-A12: human IgG1 anti-IGF-IR antibody; heavy chain variable domain SEQ ID NO:41, light chain variable domain SEQ ID NO:51", "values": [{"measurement": "serum A12 level", "setting": "[8]; four weeks after treatment cessation", "result": "very low level"}, {"measurement": "decline of serum A12 levels", "setting": "[8]; two weeks after treatment cessation, animals received docetaxel combined with A12", "result": 100, "unit": "fold"}, {"measurement": "cross-reactivity with murine IGF-IR", "setting": "murine IGF-IR", "result": "greater than 95%"}, {"measurement": "loss of bone density (osteoporosis), non-tumored legs", "setting": "LuCaP 23.1 xenograft; 40 mg/kg IMC-A12", "result": "did not cause a loss of bone density"}, {"measurement": "Bone mineral density (BMD), Non-tumored leg, Mean", "setting": "LuCaP 23.1 xenograft; [9]", "result": 0.045}, {"measurement": "Bone mineral density (BMD), Tumored Leg, Mean", "setting": "LuCaP 23.1 xenograft; [9]", "result": "significantly reduced"}, {"measurement": "Bone mineral density (BMD), Tumored Leg, Mean", "setting": "LuCaP 23.1 xenograft; 40 mg/kg IMC-A12 i.p. three times a week for six weeks, at sacrifice, listed as A12", "result": 0.060}, {"measurement": "Serum PSA levels", "setting": "LuCaP 23.1 xenograft; 40 mg/kg IMC-A12 vs untreated", "result": "significantly lower"}, {"measurement": "tumor progression on radiographs", "setting": "LuCaP 23.1 xenograft; 40 mg/kg IMC-A12 vs untreated", "result": "significantly reduced or prevented"}]}]}
